Read-outs that look alike come from different tables or passages of the source.
Experiments:
SLE patients [1] = details: in vivo
Experimental: (§1) The PRELUDE Study was a phase 2, multinational, multicenter, randomized, double-blind, placebo-controlled, multiple-dose, parallel group study to assess the efficacy, tolerability and safety of three doses of subcutaneously injected Edratide in SLE patients.
(§2) The total study treatment duration was 26 weeks. Scheduled visits were performed at screening, baseline and at weeks 4, 8, 12, 16, 20, 24, and 26 (termination). […] Non-compliance with the tapering down scheme was not regarded as a protocol violation. During the entire course of the study it was allowed to increase the steroid prednisolone dose to up to 60 mg. Use of intravascular/intramuscular steroid was considered a protocol violation. […] Edratide and CAPTISOL® pharmacokinetic (PK) profiles were characterized in a small group of patients. PK assessment of CAPTISOL® for all four treatment groups was conducted following the first dose and Weeks 12 and 26 doses. Disease and drug related immunology parameters were tested at baseline and at several time points thereafter.
(§3) The co-primary end-points presented in their hierarchical order below were: • Change from baseline to last observed value (LOV) in SLEDAI 2K score (Landmark Analysis.) • Adjusted Mean SLEDAI 2K (AMS). AMS represents the time weighted average of disease activity as measured by SLEDAI 2K score [area under the curve (AUC) of SLEDAI 2K].
(§4) Secondary End-Points: • BILAG proportion of responders. BILAG responders were defined as: • a. Non Responder (NR)—same BILAG score in Last Observed Value (LOV) as in baseline in all systems or new A or B in at least one system compared to baseline (other systems may improve or deteriorate). • b. […] Change from baseline to LOV • SF-36 (QoL) Physical component Score—Change from Baseline to LOV • Time Weighted Average (TWA) on cumulative steroids dose with p.o. administration.
(§5) Exploratory End-Points: • Primary end-point sensitivity analysis to steroid increase (excluding the observations following steroid increase) • Proportions of Zero SLEDAI Score at LOV • Time to Zero SLEDAI Score • BILAG Total Score—Change from Baseline to LOV
(§6) Flares Analysis: • Time to medicinal flare • Time to new BILAG A or at least two new B's • Time to new BILAG A or at least two new B's (excluding persistent activity) • Steroid dose (PO)—Change from baseline to LOV • PGA—Physician's Global Assessment

SLE patients [2] = details: cited from earlier work; for incidence of adverse events (AEs): placebo 75%
SLE patients [3] = details: cited from earlier work
[4] = tested on: peripheral blood lymphocytes (PBL) of SLE patients; details: cited from earlier work
[5] = tested on: mice afflicted with spontaneous or experimental SLE; details: mouse, in vivo; cited from earlier work
SLE patients [6] = assay: PRELUDE phase 2 study, three doses of subcutaneously injected Edratide, 26 weeks; details: for AE incidence: placebo 79.3%; for early withdrawal due to AE: placebo 2.3%
Experimental: as §1, §2, §3, §4, §5, §6

CC[C@H](C)[C@H](NC(=O)[C@H](Cc1c[nH]c2ccccc12)NC(=O)[C@H](CO)NC(=O)[C@H](Cc1c[nH]c2ccccc12)NC(=O)[C@H](Cc1ccc(O)cc1)NC(=O)[C@H](Cc1ccc(O)cc1)NC(=O)CN)C(=O)C[C@@H](CCCNC(=N)N)C(=O)N[C@@H](CCC(N)=O)C(=O)N1CCC[C@H]1C(=O)N1CCC[C@H]1C(=O)NCC(=O)N[C@@H](CCCCN)C(=O)NCC(=O)N[C@@H](CCC(=O)O)C(=O)N[C@@H](CCC(=O)O)C(=O)N[C@@H](Cc1c[nH]c2ccccc12)C(=O)N[C@H](C(=O)NCC(=O)O)[C@@H](C)CC (stereo in doubt) [Edratide, H-Gly-Tyr-Tyr-Trp-Ser-Trp-Ile-Arg-Gln-Pro-Pro-Gly-Lys-Gly-Glu-Glu-Trp-Ile-Gly-OH]
subjects with herpes simplex (SLE patients [1]): 8 subjects
subjects with herpes viral infections (SLE patients [1]): 11 subjects
subjects with herpes zoster (SLE patients [1]): 3 subjects
increase of total SLEDAI-2K score in one subject (SLE patients [2]; 0.5 mg group, Week 4 after dosing, not confirmed as lupus flare): 2 to 10 points
change of total SLEDAI-2K score (SLE patients [2]; any subject during the study, except one subject in the 0.5 mg group): No noteworthy change
incidence of adverse events (AEs) (SLE patients [2]; single sc injection 0.5 mg, % of the subjects): 33%
incidence of adverse events (AEs) (SLE patients [2]; single sc injection 1 mg): 67%
incidence of adverse events (AEs) (SLE patients [2]; single sc injection 2.5 mg): 80%
subjects with increase in total SLEDAI-2K score of 0-3 points (SLE patients [3]; 0.5 mg group): Two
subjects with increase in total SLEDAI-2K score of 0-3 points (SLE patients [3]; 2.5 mg group): 2 subjects
overall incidence of AEs between all treatment groups (SLE patients [3]; 0.5, 1 or 2.5 mg sc twice weekly for 4 weeks vs placebo): no prominent difference
severity of injection site reactions (SLE patients [3]; all injection site reactions, majority resolved on day of injection): mild
subjects reporting AEs during 8-week follow-up period (off-drug) (SLE patients [3]; all treatment groups): Approximately 50%
adjusted mean SLEDAI (AMS) score change, baseline to termination visit (SLE patients [3]; all treatment groups, decreased (improved)): −0.1 to −1.5 points
trend in mean group total BILAG score (SLE patients [3]; any treatment group): No trend
SAE throughout the study (SLE patients [3]; in vivo): No SAE was reported
incidence of AEs during 8-week follow-up period (off-drug), active groups vs placebo (SLE patients [3]; in vivo): no prominent difference
proliferative response of PBL of SLE patients to the human anti-DNA 16/6Id mAB [4]: inhibit the proliferative response
disease manifestations of mice afflicted with spontaneous or experimental SLE [5]: ameliorate disease manifestations
Serious Adverse Events (SAEs), number of subjects (SLE patients [6]; 0.5 mg): 6 subjects
change in SF-36 mental score compared to placebo (SLE patients [6]; 0.5 mg): slightly better
change in SF-36 physical score compared to placebo (SLE patients [6]; 0.5 mg): opposite trend
early withdrawal due to AE, number of subjects (SLE patients [6]; 0.5 mg): 5 subjects
post hoc analysis on BILAG responders, system improved (SLE patients [6]; 0.5 mg): improvement mainly in the cutaneous system
subjects who prematurely terminated the study (SLE patients [6]; 0.5 mg (84 randomized)): Thirteen
deaths during the study (SLE patients [6]; 0.5 mg group): One
relation of death to study drug as classified by investigators (SLE patients [6]; 0.5 mg group, most probably septic shock): not related to the study drug
AE incidence (SLE patients [6]; 0.5 mg weekly): 82.1%
BILAG substantial responders (SLE patients [6]; 0.5 mg, ITT, LOV vs baseline, placebo 22%, p=0.03): 36%
subjects with medicinal flare (SLE patients [6]; 0.5 mg, ITT, post hoc, placebo 29%, p=0.039): 17%
BILAG substantial response odds ratio (OR) vs placebo (SLE patients [6]; 0.5 mg, ITT, p=0.03): 2.09
medicinal flare OR vs placebo (SLE patients [6]; 0.5 mg, ITT, p=0.039): 0.43
BILAG substantial responders (SLE patients [6]; 0.5 mg, no steroids at baseline, placebo 13%, p=0.05): 54%
early withdrawal due to AE (SLE patients [6]; 0.5 mg): 6.0%
Serious Adverse Events (SAEs) incidence (SLE patients [6]; 0.5 mg, placebo 10.3%): 7.1%
Serious Adverse Events (SAEs), number of subjects (SLE patients [6]; 1.0 mg): 10 subjects
early withdrawal due to AE, number of subjects (SLE patients [6]; 1.0 mg): 3 subjects
subjects who prematurely terminated the study (SLE patients [6]; 1.0 mg (87 randomized)): 13 subjects
subjects with zoster (SLE patients [6]; 1 mg group): 2 subjects
AE incidence (SLE patients [6]; 1 mg weekly): 77%
proportion of BILAG substantial responders compared to placebo (SLE patients [6]; 1 mg, lesser extent than 0.5 mg): trend toward increasing the proportion of substantial responders
BILAG substantial response OR vs placebo (SLE patients [6]; 1 mg, p=0.07 without correction for multiple comparison): 1.85
early withdrawal due to AE (SLE patients [6]; 1.0 mg): 3.4%
Serious Adverse Events (SAEs) incidence (SLE patients [6]; 1.0 mg, placebo 10.3%): 11.5%
Serious Adverse Events (SAEs), number of subjects (SLE patients [6]; 2.5 mg): 8 subjects
early withdrawal due to AE, number of subjects (SLE patients [6]; 2.5 mg): 3 subjects
subjects who prematurely terminated the study (SLE patients [6]; 2.5 mg (82 randomized)): 11 subjects
AE incidence (SLE patients [6]; 2.5 mg weekly): 75.6%
early withdrawal due to AE (SLE patients [6]; 2.5 mg): 3.7%
Serious Adverse Events (SAEs) incidence (SLE patients [6]; 2.5 mg, placebo 10.3%): 9.8%
cSRI positive responders (SLE patients [6]; ITT (FIG. 4), placebo 20%, p=0.058): 34%
safety signal from AEs analysis and additional safety data (SLE patients [6]; all Edratide doses, no clear dose response): no significant safety signal
co-primary endpoints (change in SLEDAI 2K score baseline to LOV; AMS), active groups vs placebo (SLE patients [6]; any of the active treatment groups): no differences
SF-36 mental or physical scores, differences between treatment groups (SLE patients [6]; in vivo): No clinically or statistically significant differences
cumulative change in steroid dose throughout the study, differences between treatment groups (SLE patients [6]; in vivo): No clinically or statistically significant differences
early terminations due to AEs, Edratide vs placebo (SLE patients [6]; in vivo): more often
SAE incidence (SLE patients [6]; pooled Edratide group, placebo 10.3%): 9.5%
BILAG substantial response OR vs placebo (SLE patients [6]; prednisolone dose <20 mg at baseline, p=0.007): 2.75
BILAG substantial responders (SLE patients [6]; prednisolone dose <20 mg at baseline, placebo 19%, p=0.007 (FIG. 2B)): 40%
mean reduction from baseline SLEDAI-2K score (SLE patients [6]; regardless of treatment): about 35%
BILAG substantial responders (SLE patients [6]; seropositive patients (anti-DNA>30 IU), placebo 26% (FIG. 2C)): 46%
BILAG non-responders (SLE patients [6]; seropositive patients (anti-DNA>30 IU), placebo 68%, p=0.05): 42%
